Activity calls are given as the source filed them.
Assays:
[1] = growth suppression of PTEN-null colon cells, dose response, cell-based, HCT116 PTEN knockout (AID 1047); assay type: functional;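 further: HCT116 colon tumor cells with PTEN knocked out; cells exposed to compound for 60 hours before readout; potency for loss of cell viability measured by luminescence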
[2] = HEK293T cytotoxicity, dose response, cytotoxicity control for miR-122 modulator project, cell-based, inhibitor set, cherry-pick, set 2 (AID 720697); assay type: functional
[3] = target: G-protein coupled receptor 55 (Homo sapiens, UniProt Q9Y2T6); assay: GPR55 antagonists blocking LPI-driven arrestin recruitment, primary screen, imaging, U2OS, beta-arrestin-GFP, LPI agonist (AID 2013); assay type: functional;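 further: antagonist potency measured as reduced agonist-driven arrestin aggregation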
[4] = Luminescence Cell-Based Dose Response HTS to Identify Inhibitors of 5'UTR Stem-Loop Driven Prion Protein mRNA Translation in H4 Neuroglioblastoma Cells. [Related pubchem assays: 1827 (Project Summary), 1813 (Primary HTS)]; assay type: functional
[5] = inhibitors of SNCA 5'UTR-driven reporter translation, confirmation, H4 neuroglioma cells, luminescence (AID 1988); assay type: functional, cell-based
[6] = target: Voltage-gated inwardly rectifying potassium channel KCNH2 (Homo sapiens, UniProt Q12809); assay: hERG protection from proarrhythmic block, potency, dose response, cell-based, thallium flux (AID 2121); assay type: ADME
BJ = assay: cytotoxicity toward Ras-transformed BJeLR fibroblasts, dose response, cell-based, alamar blue fluorescence, cherrypicked samples (AID 2631); assay type: functional; settings: Homo sapiens;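 further: confirmatory dose-response assay in RAS-dependent BJ fibroblasts engineered with TERT, LT and ST, with cytotoxicity read by fluorescence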
[7] = Vero E6 cell cytotoxicity, dose response, cytotoxicity control for non-replicating M. tuberculosis project, secondary assay (AID 492998); assay type: functional, VeroE6; settings: Vero C1008
[8] = target: Neuropeptide Y receptor type 2 (Homo sapiens, UniProt P49146); assay type: functional, cell-based;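 further: HEK293 cells expressing the receptor and a CNG channel; stimulus was NPY near EC95 followed by isoproterenol to raise cAMP; antagonist potency measured as restoring cAMP signal that NPY suppresses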
[9] = target: Protein-tyrosine kinase 2-beta (Homo sapiens, UniProt Q14289);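 further: potency of inhibitors of PYK2 kinase phosphorylation of poly-GT substrate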
[10] = inhibitors of firefly luciferase expression or activity, dose response, H4 neuroglioma cells, luminescence (AID 1990); assay type: functional, cell-based
[11] = target: T1, Calpain-2 catalytic subunit (Sus scrofa, UniProt P43367); assay: pig calpain II inhibitor potency, dose response, biochemical, fluorogenic peptide substrate (AID 1420); assay type: functional
T1 sequence (P43367 whole entry): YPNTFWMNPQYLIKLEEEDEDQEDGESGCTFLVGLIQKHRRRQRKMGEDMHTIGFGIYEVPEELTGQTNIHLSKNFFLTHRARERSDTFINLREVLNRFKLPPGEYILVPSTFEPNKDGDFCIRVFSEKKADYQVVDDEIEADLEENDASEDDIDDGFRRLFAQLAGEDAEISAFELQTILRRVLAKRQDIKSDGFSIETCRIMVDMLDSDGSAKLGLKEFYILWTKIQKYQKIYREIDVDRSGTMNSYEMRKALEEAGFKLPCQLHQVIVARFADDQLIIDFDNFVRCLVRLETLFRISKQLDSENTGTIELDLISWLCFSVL

[12] = target: T2, Small ubiquitin-related modifier 2 (Homo sapiens, UniProt P61956); assay: SUMO2–SIM peptide binding inhibitors, dose response, selectivity assay for SUMO1 interaction inhibitor project, biochemical, fluorescence polarization, uHTS hits (AID 624385); assay type: functional; settings: read-out: IC50_Mean
Fatty acid synthase = Fatty acid synthase (Homo sapiens, UniProt P49327); assay: FAS thioesterase domain inhibitors, dose response, biochemical, endpoint fluorescence intensity, uHTS hits (AID 624327); assay type: functional;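 further: fluorescence from hydrolysis of an O-methyl fluorescein acyl ester substrate by the enzyme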
[13] = target: T2, Small ubiquitin-related modifier 2; assay: inhibitors of SUMO2 protein-protein interaction, dose response, selectivity assay for SUMO1 interaction inhibitor project, biochemical, FRET, human SUMO2, uHTS hits (AID 624384); assay type: functional; settings: read-out: IC50_Mean
[14] = target: T3, Rac GTPase-activating protein 1 (Homo sapiens, UniProt Q9H0H5); assay: MgcRacGAP GTPase-activating activity inhibitors, confirmation, biochemical, ADP Hunter fluorescence, primary and confirmatory (AID 624330); assay type: functional
T3 sequence (Q9H0H5 whole entry): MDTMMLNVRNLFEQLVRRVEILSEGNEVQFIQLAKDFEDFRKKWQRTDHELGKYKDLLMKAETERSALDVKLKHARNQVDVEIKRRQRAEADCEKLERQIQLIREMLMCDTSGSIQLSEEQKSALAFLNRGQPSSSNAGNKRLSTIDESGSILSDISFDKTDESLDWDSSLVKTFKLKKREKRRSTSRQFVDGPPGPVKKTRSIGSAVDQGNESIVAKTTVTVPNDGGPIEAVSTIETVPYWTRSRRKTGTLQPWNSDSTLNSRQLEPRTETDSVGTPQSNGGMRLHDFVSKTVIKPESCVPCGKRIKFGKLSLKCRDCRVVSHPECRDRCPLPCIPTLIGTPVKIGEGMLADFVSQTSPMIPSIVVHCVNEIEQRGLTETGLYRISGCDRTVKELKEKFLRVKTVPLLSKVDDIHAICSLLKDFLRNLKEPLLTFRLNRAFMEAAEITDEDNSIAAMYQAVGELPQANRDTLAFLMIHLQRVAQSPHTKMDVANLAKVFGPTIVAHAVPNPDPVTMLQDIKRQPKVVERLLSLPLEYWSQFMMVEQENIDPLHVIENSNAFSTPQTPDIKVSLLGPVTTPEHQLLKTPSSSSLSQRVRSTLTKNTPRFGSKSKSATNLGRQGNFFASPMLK

[15] = target: Voltage-gated N-type calcium channel alpha-1B subunit/Amyloid beta A4 precursor protein-binding family A member 1 (Homo sapiens, UniProt Q00975+Q02410); assay type: protein assay
Caspase-9 = Caspase-9 (Homo sapiens, UniProt P55211); assay: caspase-9 enzyme inhibition, dose response, selectivity assay for caspase-6 inhibitor project, biochemical, fluorescence, plate reader, cherry-picked samples (AID 743293)
[16] = target: T4, Sphingosine 1-phosphate receptor 4 (Homo sapiens, UniProt O95977); assay: Fluorescence dose response cell-based high throughput screening assay for antagonists of the Sphingosine 1-Phosphate Receptor 4 (S1P4). [Related pubchem assays: 1524 (Confirmation in triplicates.), 1510 (Primary screen.)]; assay type: functional
T4 sequence (O95977 whole entry): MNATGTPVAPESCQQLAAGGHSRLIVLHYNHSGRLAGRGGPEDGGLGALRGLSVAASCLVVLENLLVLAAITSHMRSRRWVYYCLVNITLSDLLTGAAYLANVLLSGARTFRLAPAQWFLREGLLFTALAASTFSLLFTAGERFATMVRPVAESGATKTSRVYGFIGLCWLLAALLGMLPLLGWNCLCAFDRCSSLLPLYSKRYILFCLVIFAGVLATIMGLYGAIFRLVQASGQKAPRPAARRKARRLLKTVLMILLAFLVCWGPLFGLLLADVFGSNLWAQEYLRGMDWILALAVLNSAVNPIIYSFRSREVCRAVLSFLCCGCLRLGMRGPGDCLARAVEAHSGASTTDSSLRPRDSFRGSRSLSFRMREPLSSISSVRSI

[17] = target: UDP-galactopyranose mutase (Mycobacterium tuberculosis, UniProt P9WIQ1); assay: Inhibitors of Mycobacterium tuberculosis UDP-galactopyranose mutase (UGM) enzyme Measured in Biochemical System Using Plate Reader - 2105-02_Inhibitor_Dose_CherryPick_Activity. [Related pubchem assays (depositor defined):AID504439]
[18] = target: Sphingosine 1-phosphate receptor 1 (Homo sapiens, UniProt P21453); assay type: functional;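 further: Tango beta-arrestin reporter U2OS cells stimulated with S1P near its EC80; inhibitor potency meaning antagonism of receptor activation by the natural agonist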
[19] = Fluorescence-based biochemical high throughput screening dose response assay to identify inhibitors of Crimean-Congo Hemorrhagic Fever (CCHF) viral ovarian tumor domain protease (vOTU): Pep-AMC substrate.

T2 sequence (P61956 whole entry, the tested form may be a part): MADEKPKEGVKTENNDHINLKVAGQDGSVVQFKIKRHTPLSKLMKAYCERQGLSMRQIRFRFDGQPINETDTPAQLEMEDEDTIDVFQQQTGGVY
Neuropeptide Y receptor type 2, sequence (P49146 whole entry): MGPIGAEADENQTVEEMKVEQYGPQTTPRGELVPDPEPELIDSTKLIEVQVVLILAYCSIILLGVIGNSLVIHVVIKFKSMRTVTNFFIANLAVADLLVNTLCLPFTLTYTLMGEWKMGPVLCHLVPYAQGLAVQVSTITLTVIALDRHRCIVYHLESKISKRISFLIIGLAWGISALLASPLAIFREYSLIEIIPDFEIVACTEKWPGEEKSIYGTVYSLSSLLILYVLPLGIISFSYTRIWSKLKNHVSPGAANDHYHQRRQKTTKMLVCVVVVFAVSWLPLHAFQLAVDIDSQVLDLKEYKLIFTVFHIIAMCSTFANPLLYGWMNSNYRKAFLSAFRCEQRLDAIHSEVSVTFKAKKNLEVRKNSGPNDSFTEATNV
Sphingosine 1-phosphate receptor 1, sequence (P21453 whole entry, the tested form may be a part): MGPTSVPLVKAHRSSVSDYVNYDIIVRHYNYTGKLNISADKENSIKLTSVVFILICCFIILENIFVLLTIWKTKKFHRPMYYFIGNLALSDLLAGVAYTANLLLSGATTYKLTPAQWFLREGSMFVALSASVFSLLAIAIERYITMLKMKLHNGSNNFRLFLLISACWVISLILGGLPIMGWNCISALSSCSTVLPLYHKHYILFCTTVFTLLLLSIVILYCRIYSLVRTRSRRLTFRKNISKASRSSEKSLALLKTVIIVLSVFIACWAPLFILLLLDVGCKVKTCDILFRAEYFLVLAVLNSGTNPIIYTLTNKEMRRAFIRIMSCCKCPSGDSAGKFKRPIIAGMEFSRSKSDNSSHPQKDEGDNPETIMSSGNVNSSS
Protein-tyrosine kinase 2-beta, sequence (Q14289 whole entry): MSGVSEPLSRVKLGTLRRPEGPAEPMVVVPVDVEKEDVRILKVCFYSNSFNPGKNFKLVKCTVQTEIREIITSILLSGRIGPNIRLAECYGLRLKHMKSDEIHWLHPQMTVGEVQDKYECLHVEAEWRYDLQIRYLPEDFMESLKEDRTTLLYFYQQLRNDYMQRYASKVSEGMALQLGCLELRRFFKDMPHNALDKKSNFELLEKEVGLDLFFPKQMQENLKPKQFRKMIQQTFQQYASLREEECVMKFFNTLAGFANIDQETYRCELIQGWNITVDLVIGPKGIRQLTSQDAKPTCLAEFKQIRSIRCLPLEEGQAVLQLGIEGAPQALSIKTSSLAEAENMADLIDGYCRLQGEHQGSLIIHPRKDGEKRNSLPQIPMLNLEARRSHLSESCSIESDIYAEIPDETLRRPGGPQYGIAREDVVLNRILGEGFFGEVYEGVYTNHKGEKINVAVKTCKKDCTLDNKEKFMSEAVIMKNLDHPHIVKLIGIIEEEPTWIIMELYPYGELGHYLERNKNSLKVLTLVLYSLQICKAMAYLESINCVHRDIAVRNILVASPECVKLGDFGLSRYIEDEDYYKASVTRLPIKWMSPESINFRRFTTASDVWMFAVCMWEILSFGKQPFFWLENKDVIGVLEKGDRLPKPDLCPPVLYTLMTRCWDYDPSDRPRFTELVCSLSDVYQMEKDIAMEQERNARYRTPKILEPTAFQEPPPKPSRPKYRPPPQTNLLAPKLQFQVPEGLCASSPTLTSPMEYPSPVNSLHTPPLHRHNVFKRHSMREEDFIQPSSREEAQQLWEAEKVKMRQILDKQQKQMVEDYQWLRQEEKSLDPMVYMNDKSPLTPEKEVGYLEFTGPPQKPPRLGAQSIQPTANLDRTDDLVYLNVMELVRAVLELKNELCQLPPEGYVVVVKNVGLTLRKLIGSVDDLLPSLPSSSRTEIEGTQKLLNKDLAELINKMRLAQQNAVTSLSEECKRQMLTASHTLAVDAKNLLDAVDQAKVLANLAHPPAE
Fatty acid synthase, sequence (P49327 whole entry, the tested form may be a part): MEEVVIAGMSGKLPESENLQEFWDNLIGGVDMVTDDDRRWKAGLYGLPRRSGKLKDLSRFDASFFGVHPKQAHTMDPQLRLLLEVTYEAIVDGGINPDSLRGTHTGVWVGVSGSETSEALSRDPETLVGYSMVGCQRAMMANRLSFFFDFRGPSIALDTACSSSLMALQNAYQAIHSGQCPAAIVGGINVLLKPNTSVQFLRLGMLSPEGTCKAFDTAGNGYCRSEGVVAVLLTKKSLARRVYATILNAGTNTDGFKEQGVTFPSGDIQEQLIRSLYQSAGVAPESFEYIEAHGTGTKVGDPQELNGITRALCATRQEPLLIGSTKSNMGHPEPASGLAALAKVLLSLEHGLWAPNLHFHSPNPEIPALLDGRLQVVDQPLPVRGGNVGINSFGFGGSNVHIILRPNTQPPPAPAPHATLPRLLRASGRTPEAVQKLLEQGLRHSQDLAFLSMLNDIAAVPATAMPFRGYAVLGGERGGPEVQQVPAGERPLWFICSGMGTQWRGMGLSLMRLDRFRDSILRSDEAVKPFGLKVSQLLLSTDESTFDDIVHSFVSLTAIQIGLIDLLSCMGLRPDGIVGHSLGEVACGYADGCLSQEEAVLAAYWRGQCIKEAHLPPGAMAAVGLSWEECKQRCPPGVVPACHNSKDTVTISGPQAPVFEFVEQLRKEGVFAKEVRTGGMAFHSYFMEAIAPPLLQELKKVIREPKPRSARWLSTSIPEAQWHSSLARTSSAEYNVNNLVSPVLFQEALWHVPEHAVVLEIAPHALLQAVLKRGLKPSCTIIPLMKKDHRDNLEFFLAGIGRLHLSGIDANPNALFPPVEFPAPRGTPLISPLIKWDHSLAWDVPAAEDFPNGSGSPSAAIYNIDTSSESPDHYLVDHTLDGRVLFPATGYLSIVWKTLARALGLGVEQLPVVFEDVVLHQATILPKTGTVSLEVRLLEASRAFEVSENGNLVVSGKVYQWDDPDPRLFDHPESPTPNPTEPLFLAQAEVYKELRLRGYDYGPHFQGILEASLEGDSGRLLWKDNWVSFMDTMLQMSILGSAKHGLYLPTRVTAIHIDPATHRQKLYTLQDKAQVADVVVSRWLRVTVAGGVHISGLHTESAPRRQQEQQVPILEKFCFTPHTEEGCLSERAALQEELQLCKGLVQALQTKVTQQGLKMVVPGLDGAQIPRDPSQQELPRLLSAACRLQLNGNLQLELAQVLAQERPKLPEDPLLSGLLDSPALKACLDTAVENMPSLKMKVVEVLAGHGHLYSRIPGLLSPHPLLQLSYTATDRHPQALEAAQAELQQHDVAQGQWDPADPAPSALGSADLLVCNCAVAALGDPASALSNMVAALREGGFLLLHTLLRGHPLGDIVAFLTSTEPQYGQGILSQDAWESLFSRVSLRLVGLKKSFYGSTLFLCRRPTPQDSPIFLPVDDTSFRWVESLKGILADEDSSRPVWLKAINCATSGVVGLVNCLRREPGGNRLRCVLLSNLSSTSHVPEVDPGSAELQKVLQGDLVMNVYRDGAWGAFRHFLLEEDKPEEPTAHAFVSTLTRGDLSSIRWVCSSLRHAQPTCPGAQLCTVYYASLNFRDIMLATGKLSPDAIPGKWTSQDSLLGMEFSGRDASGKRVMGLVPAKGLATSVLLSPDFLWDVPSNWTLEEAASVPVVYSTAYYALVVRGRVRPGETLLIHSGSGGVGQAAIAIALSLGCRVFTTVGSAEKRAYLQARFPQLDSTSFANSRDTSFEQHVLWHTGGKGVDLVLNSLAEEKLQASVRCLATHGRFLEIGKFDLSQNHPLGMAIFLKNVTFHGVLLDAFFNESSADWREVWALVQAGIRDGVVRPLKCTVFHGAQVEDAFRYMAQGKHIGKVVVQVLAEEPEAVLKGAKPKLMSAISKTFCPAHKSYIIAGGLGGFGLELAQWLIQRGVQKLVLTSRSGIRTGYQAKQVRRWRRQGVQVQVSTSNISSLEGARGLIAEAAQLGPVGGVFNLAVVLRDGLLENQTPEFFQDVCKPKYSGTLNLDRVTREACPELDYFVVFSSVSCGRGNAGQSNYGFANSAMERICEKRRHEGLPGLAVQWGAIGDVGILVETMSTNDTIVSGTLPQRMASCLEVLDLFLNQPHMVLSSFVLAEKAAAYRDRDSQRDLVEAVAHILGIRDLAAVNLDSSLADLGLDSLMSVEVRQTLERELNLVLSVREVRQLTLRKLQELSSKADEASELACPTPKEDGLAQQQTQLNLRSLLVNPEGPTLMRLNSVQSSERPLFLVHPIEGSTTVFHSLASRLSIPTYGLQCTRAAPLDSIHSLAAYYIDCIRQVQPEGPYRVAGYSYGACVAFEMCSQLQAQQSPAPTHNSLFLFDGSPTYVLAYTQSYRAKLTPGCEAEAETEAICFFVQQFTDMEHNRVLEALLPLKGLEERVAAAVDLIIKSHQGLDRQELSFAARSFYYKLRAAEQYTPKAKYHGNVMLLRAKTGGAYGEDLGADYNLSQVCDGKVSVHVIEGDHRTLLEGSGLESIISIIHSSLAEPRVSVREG
Caspase-9, sequence (P55211 1-315 limits assumed): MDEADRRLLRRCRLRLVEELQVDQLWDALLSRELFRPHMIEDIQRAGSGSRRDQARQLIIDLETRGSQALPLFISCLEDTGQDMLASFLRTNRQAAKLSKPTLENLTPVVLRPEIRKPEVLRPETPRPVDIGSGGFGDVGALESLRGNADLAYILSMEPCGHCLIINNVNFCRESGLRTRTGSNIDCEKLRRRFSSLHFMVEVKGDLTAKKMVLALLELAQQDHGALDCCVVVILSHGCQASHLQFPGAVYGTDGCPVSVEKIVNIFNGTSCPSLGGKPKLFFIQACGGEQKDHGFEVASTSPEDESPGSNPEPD
Caspase-9, sequence (P55211 331-416 limits assumed): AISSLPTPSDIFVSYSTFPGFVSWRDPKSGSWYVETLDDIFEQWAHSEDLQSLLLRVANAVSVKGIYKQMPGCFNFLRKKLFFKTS

COC(=O)[C@@H]1[C@@H](C(=O)OC)C2(c3ccccc3-c3ccccc32)N(c2ccc(Cl)cc2)N1C#N
EC50 [1]: 7.77 µM (active)

Nc1ccc2c(c1)C(=O)C(=O)c1ccccc1-2
AC50 [2]: 2.19 µM (active)
IC50 [3]: 1.36 µM (active)
EC50 [4]: 8.68 µM (inconclusive)
EC50 [5]: > 120 µM (not active)
EC50 [6]: 1.38 µM (active)
EC50 (BJ): 2.8 µM (active)
CC50 [7]: 1.81 µM (active)
IC50 [8]: 4.25 µM (active)
IC50 [9]: > 69.5 µM (not active)
EC50 [10]: > 120 µM (not active)

COc1cc(-c2ccc(Nc3ccccc3C(=O)O)c(OC)c2)ccc1Nc1ccccc1C(=O)O
IC50 [11]: 2.87 µM (not active)
IC50 [12]: 2.34 µM (active)
IC50 (Fatty acid synthase): 7.61 µM (active)
IC50 [13]: 3.91 µM (active)
IC50 [14]: 41.4 µM (active)
IC50 [15]: 7.6 µM (active)

COc1ccc(OC)c(Nc2cc3ccccc3c(O)n2)c1
AC50 (Caspase-9): 10.1 µM (active)

COC(CNC(=O)c1ccc2c3c(onc13)-c1ccccc1C2=O)OC
IC50 [16]: 1.63 µM (active)
AC50 [17]: 2.79 µM (active)
IC50 [18]: 15.1 µM (not active)

O=C(O)c1ccc(NC2=C/C(=N/S(=O)(=O)c3ccccc3)c3ccccc3C2=O)cc1
IC50 [19]: > 0.157 µM (active)
